3 molecules from patent publication US7605163B2, “Benzoyl-piperazine derivatives” (Hoffmann-La Roche Inc., priority 2003, dated 2009) can be followed below.

For this test, the target named is T1, mGlyT-1b (Mus musculus, UniProt P28571).
T1 construct: host or cells: Flp-in-CHO cells
T1 sequence (P28571 1-651 isoform P28571-2): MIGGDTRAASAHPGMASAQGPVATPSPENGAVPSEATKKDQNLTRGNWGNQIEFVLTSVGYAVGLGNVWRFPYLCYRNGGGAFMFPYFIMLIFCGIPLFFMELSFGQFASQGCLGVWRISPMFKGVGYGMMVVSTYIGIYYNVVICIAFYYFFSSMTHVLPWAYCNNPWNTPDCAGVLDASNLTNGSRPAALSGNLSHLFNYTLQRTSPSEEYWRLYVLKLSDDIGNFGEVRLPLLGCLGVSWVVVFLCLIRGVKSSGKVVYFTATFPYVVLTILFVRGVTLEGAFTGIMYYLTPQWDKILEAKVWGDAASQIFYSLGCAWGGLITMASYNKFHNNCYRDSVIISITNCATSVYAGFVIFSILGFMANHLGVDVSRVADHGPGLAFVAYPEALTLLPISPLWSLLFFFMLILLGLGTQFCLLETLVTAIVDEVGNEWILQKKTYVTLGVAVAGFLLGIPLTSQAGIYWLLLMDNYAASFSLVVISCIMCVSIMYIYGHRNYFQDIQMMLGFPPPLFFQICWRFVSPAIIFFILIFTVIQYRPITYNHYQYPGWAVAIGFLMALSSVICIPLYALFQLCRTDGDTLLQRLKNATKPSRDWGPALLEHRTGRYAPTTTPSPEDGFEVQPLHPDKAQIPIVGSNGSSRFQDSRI
Briefly: Glycine Uptake Inhibition Assay (mGlyT-1b). In kind it is cell-based. The note with it: [3H]-glycine uptake inhibition at GlyT-1, Flp-in-CHO cells transfected with mGlyT-1b cDNA. The essentials:
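Flp-in CHO cells stably expressing mouse GlyT-1b preincubated 20 min at 22 °C with inhibitor in pH 7.4 uptake buffer, then given 60 nM [3H]-glycine plus 25 μM unlabelled glycine. Cell radioactivity counted by scintillation; nonspecific uptake defined with 10 mM glycine; IC50 from concentration range.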
Turning to `CC(C)Oc1ccc(S(C)(=O)=O)cc1C(=O)N1CCN(c2ccc(S(=O)(=O)C3CCCCC3)cc2F)CC1` [compound 589], the IC50 (as a rule, the concentration that gives 50% inhibition) stood at 32 nM.

Turning to `CC(C)Oc1ccc(S(C)(=O)=O)cc1C(=O)N1CCN(c2cc(F)c(S(=O)(=O)C3CC3)cc2F)CC1` [compound 595], the IC50 was 49 nM.

`CC(C)(Oc1ccc(S(C)(=O)=O)cc1C(=O)N1CCN(c2ncc(C(F)(F)F)cc2F)CC1)C(F)(F)F` [compound 637] had an IC50 of 47 nM.
